Laboratory results from publication PMC11172786, “Melatonin-Regulated Chaperone Binding Protein Plays a Key Role in Cadmium Stress Tolerance in Rice, Revealed by the Functional Characterization of a Novel Serotonin N-Acetyltransferase 3 (SNAT3) in Rice” (International Journal of Molecular Sciences, 2024).

How the values were obtained:
[1] = target: T1, OsSNAT3 (OsSNAT3-His6) (Oryza sativa, UniProt B7F8K4); test: inhibition of serotonin N-acetylation, HPLC; format: biochemical; conditions: 0.5 mM serotonin and 0.5 mM amine, pH 8.8, 55 °C; possible alternative substrate; tag form not stated for this figure
T1 construct: cDNA-derived N-terminus MGAGEG, C-terminus QAATKK
T1 sequence (B7F8K4 1-179): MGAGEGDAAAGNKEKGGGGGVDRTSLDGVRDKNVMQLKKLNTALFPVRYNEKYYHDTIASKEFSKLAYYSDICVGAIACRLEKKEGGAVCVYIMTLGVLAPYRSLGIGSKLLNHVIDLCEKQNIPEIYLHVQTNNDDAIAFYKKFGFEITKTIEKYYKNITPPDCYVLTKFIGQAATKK

[2] = substrate: NCCc1c[nH]c2ccc(O)cc12; test: HPLC detection of N-acetylserotonin, Lineweaver-Burk; format: biochemical, Oryza sativa; conditions: 0.5 mM acetyl-CoA, 100 mM potassium phosphate pH 8.8, 45 °C
[3] = substrate: COc1ccc2[nH]cc(CCN)c2c1; test: HPLC detection of melatonin, Lineweaver-Burk; format: biochemical, Oryza sativa; conditions: 0.5 mM acetyl-CoA, 100 mM potassium phosphate pH 8.8, 45 °C

Molecule: NCCc1ccc(O)c(O)c1 [dopamine]
- SNAT activity with 0.5 mM amine [1]: significantly inhibited by putrescine and dopamine

Molecule: NC[C@H](O)c1ccc(O)cc1 [octopamine]
- SNAT activity with 0.5 mM amine [1]: OsSNAT3 activity was strongly inhibited by spermidine and octopamine (Figure 3C)

Molecule: NCCCCN [putrescine]
- SNAT activity with 0.5 mM amine [1]: significantly inhibited by putrescine and dopamine

Molecule: NCCCCNCCCN [spermidine]
- SNAT activity with 0.5 mM amine [1]: OsSNAT3 activity was strongly inhibited by spermidine and octopamine (Figure 3C)

B1: OsSNAT3 (OsSNAT3-His6) (Oryza sativa Japonica Group) (protein)
chain: T1 sequence (B7F8K4 1-179)
notes: cDNA-derived N-terminus MGAGEG, C-terminus QAATKK
- Km [2]: 1152 µM
- Km [3]: 1587 µM
